# Entries after “also recorded” stand apart in the source; their conditions may differ.
# How the values were obtained:
# [1] = system: HCMV strain AD169; test: HCMV AD169 replication in human fibroblasts treated with 4-PBA, TCID50; type: cell-based, human cytomegalovirus; details: 0.1 pfu/cell; day 8 post infection; range of 4-PBA doses
# From the text: FIG. 10. 4-PBA inhibits HCMV replication in a dose-dependent manner. […] The medium with drug was replaced every other day. Cell-free and cell-associated virus was collected on day 8 post infection and titered by the TCID50 method. Data represent the log mean titer of duplicate samples.
# To explore the hypothesis that HCMV might actually require the UPR to occur in order to maintain cellular homeostasis despite high levels of expression of viral glycoproteins, HCMV-infected human fibroblasts (HFFs) were treated with an inhibitor of the UPR, the chemical chaperone sodium 4-phenylbutyrate (4-PBA).
# [2] = system: human fibroblasts; test: trypan blue exclusion viability of confluent human fibroblasts treated with 4-PBA; type: cell-based; details: 8 days; up to highest dose tested
# Procedure: (§1) FIG. 11. 4-PBA is not toxic to uninfected or infected confluent human fibroblasts. (A) Fibroblasts were maintained in medium containing the indicated concentrations of 4-PBA for 8 days. The medium was replaced every other day throughout the time course. At the end of the treatment period, cell viability was measured by the trypan blue exclusion assay. Date points represent the mean of duplicate wells. (B) Fibroblasts were infected with HCMV at a multiplicity of 0.1 pfu/cell. Cells were fed every other day with fresh medium containing the indicated concentration of 4-PBA. At eight days post infection, cells were washed once with media, and then media lacking drug was added. Eight days later (16 days post infection) cell free virus in the supernatant was quantitated by the TCID50 method. Date points represent the mean of duplicate wells.
# (§2) Two experiments were performed to rule out the possibility that 4-PBA is simply toxic to the cells and inhibits HCMV indirectly by reducing cell viability (FIG. 11). In the first experiment (FIG. 11A) an assay for cell viability was performed on confluent human fibroblasts treated for eight days with different concentrations of the drug. […] Then the drug was removed and the yield of virus was determined 8 days later.
# [3] = system: HCMV; test: 4-PBA reversibility: HCMV yield 8 days after drug removal, TCID50; type: cell-based, human cytomegalovirus; details: all doses tested; 8-day treatment; 16 days post infection
# Procedure: as §1, §2
# [4] = target: mTOR (Homo sapiens, UniProt P42345); details: read-out: IC50 of selective mTOR inhibitor; cited from earlier work
# [5] = system: PI3Ks; details: cited from earlier work
# [6] = system: panel of 140 protein kinases; details: read-out: IC50 against panel of 140 protein kinases; cited from earlier work
# [7] = system: HCMV; test: HCMV multistep growth in serum-starved human fibroblasts, cell-free virus by TCID50; type: cell-based, human cytomegalovirus; details: day 10; 0.05 PFU/cell; rapamycin 20 nM, Torin1 250 nM
# [8] = system: MCMV; test: MCMV replication in MEFs, cell-free virus by TCID50; type: cell-based, murine cytomegalovirus; details: wild-type MEFs; 0.05 PFU/cell; rapamycin 20 nM, Torin1 250 nM
compound,measurement,setting,value
"O=C([O-])CCCc1ccccc1.[Na+] [4-PBA, sodium 4-phenylbutyrate]",HCMV replication / virus production,[1],effectively inhibited virus replication in a dose-dependent manner; also recorded: inhibited virus production in a dose-dependent manner
same,"cellular viability / toxicity, trypan blue exclusion",[2],no effect on cellular viability; also recorded: not toxic
same,virus yield 8 days after drug removal,[3],recovered and produced a normal yield
COC(=O)Nc1ccc(-c2nc(N3CCOCC3)c3cnn(C4CCN(C(=O)OC)CC4)c3n2)cc1 [WYE354],IC50,[4],5 nM
CNC(=O)Nc1ccc(-c2nc(N3CC4CCC(C3)O4)c3cnn(C4CCC5(CC4)OCCO5)c3n2)cc1 [WYE-125132],IC50,[4],0.19 nM
same,fold selective versus PI3Ks (PI3K),[5],"> 5,000 fold"
O=C(Nc1ccc(-c2nc(N3CC4CCC(C3)O4)c3sccc3n2)cc1)NC1CC1 [Wyeth-BMCL-200910075-9b],IC50,[4],0.7 nM
same,fold selective versus PI3Ks (PI3K),[5],"> 1,000 fold"
Cc1c(C(=O)N2CCOc3ccc(-c4ccc(N)nc4)cc3C2)ccc(S(C)(=O)=O)c1F [XL388],IC50,[6],> 3000 nM
CO[C@H]1C[C@@H]2CC[C@@H](C)[C@@](O)(O2)C(=O)C(=O)N2CCCC[C@H]2C(=O)O[C@H]([C@H](C)C[C@@H]2CC[C@@H](O)[C@H](OC)C2)CC(=O)[C@H](C)/C=C(\C)[C@@H](O)[C@@H](OC)C(=O)[C@H](C)C[C@H](C)/C=C/C=C/C=C/1C [rapamycin],reduction of HCMV yield,[7],~8 fold
same,MCMV replication,[8],no inhibitory effect

# Reference: US20180185374A1, “INHIBITORS OF MTOR KINASE AS ANTI-VIRAL AGENTS” (THE TRUSTEES OF PRINCETON UNIVERSITY, priority 2009, published 2018)
